Key:
[1] = CC50 B/Florida/04/2006, cytotoxicity in the B/Florida/04/2006 assay
[2] = CC50, third EC50/CC50 column pair (c7), beside the EC50 of c6

## Cc1ccccc1Sc1nnc(CCn2nc(C)c(Br)c2C)o1 [Compound 54, 2-(2-(4-bromo-3,5-dimethyl-1H-pyrazol-1-yl)ethyl)-5-(o-tolylthio)-1,3,4-oxadiazole]
other
  melting point: 103.6 °C
In vitro; [1]
  CC50: > 50 µM

## Cc1ccccc1CSc1ncc(C(=O)n2nc(C)c(Br)c2C)o1 [Compound 55, (4-bromo-3,5-dimethyl-1H-pyrazol-1-yl)(2-((2-methylbenzyl)thio)oxazol-5-yl)methanone]
other
  melting point: 123.6 °C
In vitro; [1]
  CC50: > 50 µM

## Cc1nn(C(=O)c2ccc(Sc3ccccc3C(C)C)o2)c(C)c1Br [Compound 56, (4-bromo-3,5-dimethyl-1H-pyrazol-1-yl)(5-((2-isopropylphenyl)thio)furan-2-yl)methanone]
other
  melting point: 169.7 °C
In vitro; [1]
  CC50: > 50 µM

## Cc1nn(C(=O)c2ccc(Oc3ccccc3C(C)C)o2)c(C)c1Br [Compound 57, (4-bromo-3,5-dimethyl-1H-pyrazol-1-yl)(5-(2-isopropylphenoxy)furan-2-yl)methanone]
other
  melting point: 103.3 °C
In vitro; [1]
  CC50: > 50 µM

## Cc1cccc(C)c1Nc1nnc(C(O)c2ccccc2)o1 (stereo not shown) [Compound 77, (5-((2,6-dimethylphenyl)amino)-1,3,4-oxadiazol-2-yl)(phenyl)methanol]
other
  melting point: 179 °C
In vitro; [1]
  CC50: > 50 µM

## Cc1cccc(C)c1Nc1nnc(C(=O)c2ccc(F)c(Cl)c2)o1 [Compound 78, (3-chloro-4-fluorophenyl)(5-((2,6-dimethylphenyl)amino)-1,3,4-oxadiazol-2-yl)methanone]
other
  melting point: 252.8 °C
In vitro; [1]
  CC50: > 50 µM

## CC(C)c1ccccc1/C=C/c1nnc(Cc2ccc(OC(F)(F)F)cc2)o1 [Compound 81, (E)-2-(2-isopropylstyryl)-5-(4-(trifluoromethoxy)benzyl)-1,3,4-oxadiazole]
other
  melting point: 91.6 °C
In vitro; CC50, beside the EC50 of c2
  CC50: > 50 µM
In vitro; CC50, beside the EC50 of c4
  CC50: > 50 µM
In vitro; [2]
  CC50: > 50 µM

## Brc1ccc(Nc2nnc(/C=C/c3cccc4ncccc34)o2)cc1 [Compound 121, (E)-N-(4-bromophenyl)-5-(2-(quinolin-5-yl)vinyl)-1,3,4-oxadiazol-2-amine]
other
  melting point: 246.5 °C
In vitro; CC50, beside the EC50 of c2
  CC50: > 50 µM
In vitro; CC50, beside the EC50 of c4
  CC50: > 50 µM
In vitro; [2]
  CC50: > 50 µM

## Brc1ccc(Cc2nnc(/C=C/c3ccccc3Br)o2)cc1 [Compound 128, (E)-2-(4-bromobenzyl)-5-(2-bromostyryl)-1,3,4-oxadiazole]
other
  melting point: 156.1 °C
In vitro; CC50, beside the EC50 of c2
  CC50: > 50 µM
In vitro; CC50, beside the EC50 of c4
  CC50: > 50 µM
In vitro; [2]
  CC50: > 50 µM

## Clc1ccc(/C=C/c2nnc(Cc3ccc(Br)cc3)o2)cc1Cl [Compound 149, 2-(4-bromobenzyl)-5-(3,4-dichlorostyryl)-1,3,4-oxadiazole]
other
  melting point: 164.5 °C
In vitro; CC50, beside the EC50 of c2
  CC50: > 50 µM
In vitro; CC50, beside the EC50 of c4
  CC50: > 50 µM
In vitro; [2]
  CC50: > 50 µM

## Clc1ccc(-c2ccccc2/C=C/c2nnc(Cc3ccc(Br)cc3)o2)cc1 [Compound 153, 2-(4-bromobenzyl)-5-(2-(4′-chloro-[1,1′-biphenyl]-2-yl)vinyl)-1,3,4-oxadiazole]
other
  melting point: 123.7 °C
In vitro; CC50, beside the EC50 of c2
  CC50: > 50 µM
In vitro; CC50, beside the EC50 of c4
  CC50: > 50 µM
In vitro; [2]
  CC50: > 50 µM

## Brc1ccc(Cc2nnc(-c3cc4ccccc4o3)o2)cc1 [Compound 156, 2-(benzofuran-2-yl)-5-(4-bromobenzyl)-1,3,4-oxadiazole]
other
  melting point: 145.7 °C
In vitro; CC50, beside the EC50 of c2
  CC50: > 50 µM
In vitro; CC50, beside the EC50 of c4
  CC50: > 50 µM
In vitro; [2]
  CC50: > 50 µM

## Clc1ccc2oc(-c3nnc(Cc4ccc(Br)cc4)o3)cc2c1 [Compound 157, 2-(4-bromobenzyl)-5-(5-chlorobenzofuran-2-yl)-1,3,4-oxadiazole]
other
  melting point: 149.7 °C
In vitro; CC50, beside the EC50 of c2
  CC50: > 50 µM
In vitro; CC50, beside the EC50 of c4
  CC50: > 50 µM
In vitro; [2]
  CC50: > 50 µM

## Clc1ccccc1/C=C/c1nnc(Cc2ccc(Br)cc2)o1 [Compound 166, 2-(4-bromobenzyl)-5-(2-chlorostyryl)-1,3,4-oxadiazole]
other
  melting point: 136.3 °C
In vitro; CC50, beside the EC50 of c2
  CC50: > 50 µM
In vitro; CC50, beside the EC50 of c4
  CC50: > 50 µM
In vitro; [2]
  CC50: > 50 µM

## Clc1cccc(/C=C/c2nnc(Cc3ccc(Br)cc3)o2)c1 [Compound 167, 2-(4-bromobenzyl)-5-(3-chlorostyryl)-1,3,4-oxadiazole]
other
  melting point: 105.1 °C
In vitro; CC50, beside the EC50 of c2
  CC50: > 50 µM
In vitro; CC50, beside the EC50 of c4
  CC50: > 50 µM
In vitro; [2]
  CC50: > 50 µM

## Clc1cccc(Cl)c1/C=C/c1nnc(Cc2ccc(Br)cc2)o1 [Compound 168, 2-(4-bromobenzyl)-5-(2,6-dichlorostyryl)-1,3,4-oxadiazole]
other
  melting point: 139.3 °C
In vitro; CC50, beside the EC50 of c2
  CC50: > 50 µM
In vitro; CC50, beside the EC50 of c4
  CC50: > 50 µM
In vitro; [2]
  CC50: > 50 µM

## Cc1ccc(Br)cc1Cc1nnc(/C=C/c2ccc(F)cc2Cl)o1 [Compound 282, 2-(5-bromo-2-methylbenzyl)-5-(2-chloro-4-fluorostyryl)-1,3,4-oxadiazole]
other
  melting point: 169.3 °C

## Fc1ccc(/C=C/c2nnc(Cc3cc(Br)ccn3)o2)c(Cl)c1 [Compound 283, 2-((4-bromopyridin-2-yl)methyl)-5-(2-chloro-4-fluorostyryl)-1,3,4-oxadiazole]
other
  melting point: 149.5 °C

## Fc1cc(F)c(/C=C/c2nnc(Cc3cccc(Br)c3)o2)c(Br)c1 [Compound 290, 2-(2-bromo-4,6-difluorostyryl)-5-(3-bromobenzyl)-1,3,4-oxadiazole]
other
  melting point: 118.2 °C

## Fc1ccc(/C=C/c2nnc(Cc3cccc(Cl)c3F)o2)c(Cl)c1 [Compound 291, 2-(3-chloro-2-fluorobenzyl)-5-(2-chloro-4-fluorostyryl)-1,3,4-oxadiazole]
other
  melting point: 118.1 °C

## Fc1cc(Br)cc(Cc2nnc(/C=C/c3ccc(F)cc3Cl)o2)c1 [Compound 292, 2-(3-bromo-5-fluorobenzyl)-5-(2-chloro-4-fluorostyryl)-1,3,4-oxadiazole]
other
  melting point: 143 °C

## Fc1ccc(/C=C/c2nnc(Cc3cccc(Br)c3F)o2)c(Cl)c1 [Compound 293, 2-(3-bromo-2-fluorobenzyl)-5-(2-chloro-4-fluorostyryl)-1,3,4-oxadiazole]
other
  melting point: 135.8 °C

## Cc1c(Br)cccc1Cc1nnc(/C=C/c2ccc(F)cc2Cl)o1 [Compound 294, 2-(3-bromo-2-methylbenzyl)-5-(2-chloro-4-fluorostyryl)-1,3,4-oxadiazole]
other
  melting point: 158.3 °C

## Cc1ccc2cccc(Cc3nnc(/C=C/c4ccc(F)cc4Cl)o3)c2n1 [Compound 295, 2-(2-chloro-4-fluorostyryl)-5-((2-methylquinolin-8-yl)methyl)-1,3,4-oxadiazole]
other
  melting point: 191.2 °C

## COc1ccc2cccc(Cc3nnc(/C=C/c4ccc(F)cc4Cl)o3)c2c1 [Compound 298, 2-(2-chloro-4-fluorostyryl)-5-((7-methoxynaphthalen-1-yl)methyl)-1,3,4-oxadiazole]
other
  melting point: 179.9 °C

## Fc1ccc(/C=C/c2nnc(Cc3cccc(C(F)F)c3)o2)c(Cl)c1 [Compound 299, 2-(2-chloro-4-fluorostyryl)-5-(3-(difluoromethyl)benzyl)-1,3,4-oxadiazole]
other
  melting point: 108.1 °C

## Cc1ccc(Cc2nnc(/C=C/c3ccc(F)cc3Cl)o2)cc1Cl [Compound 300, 2-(2-chloro-4-fluorostyryl)-5-(3-chloro-4-methylbenzyl)-1,3,4-oxadiazole]
other
  melting point: 161.4 °C

## Cc1ccc(Cc2nnc(/C=C/c3ccc(F)cc3N(C)CCc3ccccc3)o2)cc1Br [Compound 305, 2-(2-(5-(3-bromo-4-methylbenzyl)-1,3,4-oxadiazol-2-yl)vinyl)-5-fluoro-N-methyl-N-phenethylaniline]
other
  melting point: 80.7 °C
